Source: publication PMC5962729 (Frontiers in Pharmacology, 2018)

Tests used:
Assay type in all cases: in vivo
BSEP = test: Expression level of BSEP in rat liver by UHPLC-MS/MS
Method: (§1) Male Sprague Dawley rats (230 ± 20 g, 6–8 weeks of age) were purchased from B&K Laboratory Animal, Corp. Ltd. (Shanghai, China) and fed in the Laboratory Animal Center of Shanghai University of Traditional Chinese Medicine. All rats were allowed to acclimatize for 3 days before experimentation. The rats were randomly divided into six groups (n = 5 for each group). […] Moreover, groups 1 and 2 were intragastrically treated with physiological saline (0.9%) at a dose of 1 mL/100 g. […] At the end of the experiment, all rats were euthanized by CO2 inhalation. The serum samples were stored at -70°C until analysis, and liver samples were isolated and stored at -70°C for further analysis, whereas the central part of the right large lobe of the liver was used for histological examination.
(§2) Biotransformation of xenobiotics and endogenous compounds is a crucial step in the absorption and elimination of potentially harmful substances from the human body, a process that could be affected by the levels of pharmacokinetic enzymes and transporter proteins. […]
(§3) Total membrane protein was isolated (in triplicate) from liver tissue according to the Native Membrane Protein Extraction Kit protocol. Subsequently, protein concentrations were determined by applying the BCA Protein Assay Kit. […]

OATP1A2 = test: Expression level of OATP1A2 in rat liver by UHPLC-MS/MS
Method: (§4) Male Sprague Dawley rats (230 ± 20 g, 6–8 weeks of age) were purchased from B&K Laboratory Animal, Corp. Ltd. (Shanghai, China) and fed in the Laboratory Animal Center of Shanghai University of Traditional Chinese Medicine. All rats were allowed to acclimatize for 3 days before experimentation. The rats were randomly divided into six groups (n = 5 for each group). […] The rats in groups 4, 5, and 6 were intragastrically administered YCHD every 24 h for 10 consecutive days. The rats in group 3 were orally administered UDCA at a dose of 100 mg/kg every 24 h for 10 consecutive days, which is well-documented to treat induced liver injury and cholestasis ([Chen et al., 2016]; [Cao et al., 2017]). Moreover, groups 1 and 2 were intragastrically treated with physiological saline (0.9%) at a dose of 1 mL/100 g. […] At the end of the experiment, all rats were euthanized by CO2 inhalation. The serum samples were stored at -70°C until analysis, and liver samples were isolated and stored at -70°C for further analysis, whereas the central part of the right large lobe of the liver was used for histological examination. […]

OATP1A4 = test: Expression level of OATP1A4 in rat liver by UHPLC-MS/MS
Method: as §4

NTCP = test: Expression level of NTCP in rat liver by UHPLC-MS/MS
Method: as §4

UGT1A1 = test: Expression level of UGT1A1 in rat liver by UHPLC-MS/MS
Method: as §1, §2, §3

OCT1 = test: Expression level of OCT1 in rat liver by UHPLC-MS/MS
Method: as §1, §2, §3

MATE1 = test: Expression level of MATE1 in rat liver by UHPLC-MS/MS
Description: Male Sprague Dawley rats (230 ± 20 g, 6–8 weeks of age) were purchased from B&K Laboratory Animal, Corp. Ltd. (Shanghai, China) and fed in the Laboratory Animal Center of Shanghai University of Traditional Chinese Medicine. All rats were allowed to acclimatize for 3 days before experimentation. The rats were randomly divided into six groups (n = 5 for each group). […]
Biotransformation of xenobiotics and endogenous compounds is a crucial step in the absorption and elimination of potentially harmful substances from the human body, a process that could be affected by the levels of pharmacokinetic enzymes and transporter proteins. […] Previous methods of protein quantification are immunological, such as immunoblotting ([Zhang et al., 2016]), […] and two-dimensional electrophoresis ([Bruschi et al., 2015]). […] A milestone in quantitative protein analysis was the introduction of mass spectrometry-based analysis using shotgun proteomic assays with relative protein quantification, which has advantages in terms of absolute accuracy, stability, operability, and efficiency over traditional quantitative methods ([Wang et al., 2015]). […]

MDR1 = test: Expression level of MDR1 in rat liver by UHPLC-MS/MS
Method: as §1, §2, §3

[1] = UDCA group, ANIT-treated rats, mean ± S.D.
[2] = UDCA-treated cholestatic rats, liver, as compared with the control group, p < 0.05
[3] = UDCA-treated cholestatic rats, liver, not statistically significant

C[C@H](CCC(=O)O)[C@H]1CC[C@H]2[C@@H]3[C@@H](O)C[C@@H]4C[C@H](O)CC[C@]4(C)[C@H]3CC[C@]12C [UDCA, Ursodeoxycholic acid]
Bsep expression level in rat liver (BSEP; [1]): 18.1±2.56 fmol/μg protein | BSEP level, fold higher (BSEP; [2]): 1.2 fold | Oatp1a2 expression level in rat liver (OATP1A2; [1]): 1.27±0.18 fmol/μg protein | OATP1A2 level, fold higher (OATP1A2; [2]): 1.5 fold | Oatp1a4 expression level in rat liver (OATP1A4; [1]): 0.49±0.11 fmol/μg protein | OATP1A4 expression upregulated, fold (OATP1A4; [3]): 1.3 fold | Ntcp expression level in rat liver (NTCP; [1]): 4.22±1.51 fmol/μg protein | NTCP level, fold higher (NTCP; [2]): 2.2 fold | Ugt1a1 expression level in rat liver (UGT1A1; [1]): 6.06±1.34 fmol/μg protein | UGT1A1 level, fold higher (UGT1A1; UDCA-treated cholestatic rats, liver, as compared with the control group, p < 0.01): 2.1 fold | Oct1 expression level in rat liver (OCT1; [1]): 2.22±0.59 fmol/μg protein | OCT1 level, fold higher (OCT1; [2]): 2.1 fold | Mate1 expression level in rat liver (MATE1; [1]): 3.43±1.38 fmol/μg protein | MATE1 expression upregulated, fold (MATE1; [3]): 1.7 fold | Mdr1 expression level in rat liver (MDR1; [1]): 0.67±0.32 fmol/μg protein | MDR1 level, fold higher (MDR1; [2]): 2.4 fold
